Test results reported in patent US5726189A, “Method for imaging nicotinic acetylcholinergic receptors in the brain using radiolabeled pyridyl-7-azabicyclo [2.2.1]heptanes” (priority 1996, dated 1998).

Tested on: nAChRs in mouse brain
Assay: regional distribution of [18F]FPH in mouse brain after tail vein injection
Type: in vivo
Protocol: The utility of [^18 F] FPH as an agent to label, in vivo, nAChRs in mouse brain was tested. Mice received 0.4 μCi of [^18 F]FPH (sp. act >2000 mCi/μmol) by tail vein injection. The regional distribution of the tracer in brain was assessed in the absence and presence of unlabeled epibatidine. […] In in vitro assays, the Ki for unlabeled FPH against nAChRs labeled with [^3 H] epibatidine was approximately 3 pM. […] FPH would be an excellent ligand for imaging nAChRs in living human brain.

[1] = 30 minutes post injection, tail vein, 0.4 μCi

## [18F]c1ccc(C2CC3CCC2N3)cn1 (racemic) [[^18 F]FPH, (±)-exo-2-(2-[^18 F]fluoro-5-pyridyl)-7-azabicyclo[2.2.1]heptane]
[1]
  uptake in cerebellum: < 3 % ID/g
  uptake in cortex: 6.2 % ID/g
  uptake in hippocampus: 6 % ID/g
  uptake in superior colliculus: 10 % ID/g
  uptake in thalamus: 11 % ID/g
Pretreatment with unlabeled epibatidine 20 μg/kg
  binding in all regions after pretreatment with unlabeled epibatidine: ~ 3 % ID/g
